Results published in ChEMBL document CHEMBL5728348, “1 H-pyrazol-1-yl-thiazoles as inhibitors of lactate dehydrogenase and methods of use thereof” (2021).

Assay: Biochemical Assay: Test compounds were placed in a Greiner Bio-One (Monroe, N.C.) 1536-well black solid bottom assay plate. 200 millimolar (mM) Tris HCl, pH 7.4, 100 micromolar (μM) EDTA and 0.01% TWEEN-20, final concentration, was used as the assay buffer. The LDHA reagent was 2 nanomolar (nM) Human LDHA (Meridian Life Science, Inc., Memphis, Tenn.), final concentration, in assay buffer. The substrate reagent was 0.06 mM NADH and 0.2 mM sodium pyruvate, final concentration, in assay buffer. The resazurin/diaphorase coupling reagent was 0.037 mM resazurin and 0.133 milligrams per milliliter (mg/mL) diaphorase, final concentration, in assay buffer. The inhibition of LDHA activity was measured by fluorescence emission.
With N[S+](=O)([O-])c1ccc(Cc2c(-c3cccc(-c4ccc(C(F)(F)C(F)(F)F)cc4)c3)nn(-c3nc(C(=O)O)cs3)c2CCC2CC2)cc1F the IC50 was “in the range around 0.55 µM”.
In the case of N[S+](=O)([O-])c1ccc(Cc2c(-c3ccc(F)c(-c4ncc[nH]4)c3)nn(-c3nc(C(=O)O)cs3)c2CC2CC2)cc1F, the IC50 is reported as < 0.1 µM.
In the case of N[SH+]([O-])c1ccc(Cc2c(-c3cccc(-c4ccc(C5CC5)c(F)c4)c3)nn(-c3nc(C(=O)O)cs3)c2CC2CC2)cc1F (stereo unspecified), the IC50 is reported as “in the range around 29 µM”.
In the case of N[SH+]([O-])c1ccc(Cc2c(-c3cccc(-c4ccc(Cl)c(F)c4)c3)nn(-c3nc(C(=O)O)cs3)c2CC2CC2)cc1F (stereo unspecified), the IC50 is reported as < 0.1 µM.
In the case of CC(C)c1ccc(-c2cccc(-c3nn(-c4nc(C(=O)O)cs4)c(CC4CC4)c3Cc3ccc([SH+](N)[O-])c(F)c3)c2)cc1 (stereo unspecified), the IC50 is reported as < 0.1 µM.
For Cc1ncc(-c2cc(-c3nn(-c4nc(C(=O)O)cs4)c(CC4CC4)c3Cc3ccc([SH+](N)[O-])c(F)c3)ccc2F)[nH]1 (stereo unspecified), the IC50 was < 0.1 µM.
With Cc1ccc(C#Cc2cccc(-c3nn(-c4nc(C(=O)NC#N)cs4)c(CC4CC4)c3Cc3ccc([SH+](N)[O-])c(F)c3)c2)s1 (stereo unspecified) the IC50 was “in the range around 29 µM”.
With N[SH+]([O-])c1ccc(Cc2c(-c3cccc(-c4cc(F)cc(F)c4)c3)nn(-c3nc(C(=O)O)cs3)c2CC2CC2)cc1F (stereo unspecified) the IC50 was < 0.1 µM.
In the case of NS(=O)(=O)c1ccc(Cc2c(-c3cccc(-c4nc5ccccc5[nH]4)c3)nn(-c3nc(C(=O)O)cs3)c2CC2CC2)cc1F, the IC50 is reported as < 0.1 µM.
In the case of COc1ccc(-c2cccc(-c3nn(-c4nc(C(=O)O)cs4)c(CC4CC4)c3Cc3ccc([SH+](N)[O-])c(F)c3)c2)cc1Cl (stereo unspecified), the IC50 is reported as “in the range around 0.55 µM”.
With CC(C)c1ccc(-c2cccc(-c3nn(-c4nc(C(=O)O)cs4)c(CCC4CC4)c3Cc3ccc([S+](N)(=O)[O-])c(F)c3)c2)cc1 the IC50 was “in the range around 0.55 µM”.
In the case of N[SH+]([O-])c1ccc(Cc2c(-c3cccc(-c4ccc(Cl)cc4)c3)nn(-c3nc(C(=O)O)cs3)c2CC2CC2)cc1F (stereo unspecified), the IC50 is reported as < 0.1 µM.
For Cc1ccc(-c2cccc(-c3nn(-c4nc(C(=O)O)cs4)c(CC4CC4)c3Cc3ccc([SH+](N)[O-])c(F)c3)c2)cc1F (stereo unspecified), the IC50 was < 0.1 µM.
For COc1ccc(-c2cccc(-c3nn(-c4nc(C(=O)O)cs4)c(CC4CC4)c3Cc3ccc([SH+](N)[O-])c(F)c3)c2)cc1C (stereo unspecified), the IC50 was < 0.1 µM.
With Cc1cc(-c2cccc(-c3nn(-c4nc(C(=O)O)cs4)c(CC4CC4)c3Cc3ccc([SH+](N)[O-])c(F)c3)c2)ccc1Cl (stereo unspecified) the IC50 was “in the range around 29 µM”.
In the case of N[S+](=O)([O-])c1ccc(Cc2c(-c3cccc(-c4ccc5c(c4)CCCC5)c3)nn(-c3nc(C(=O)O)cs3)c2CC2CC2)cc1F, the IC50 is reported as “in the range around 0.55 µM”.
In the case of Cc1ccc(C#Cc2cc(-c3nn(-c4nc(C(=O)O)cs4)c(CC4CC4)c3Cc3ccc([SH+](N)[O-])c(F)c3)ccc2F)s1 (stereo unspecified), the IC50 is reported as < 0.1 µM.
For Cc1ccc(C#Cc2cccc(-c3nn(-c4nc(C(N)=O)cs4)c(CC4CC4)c3Cc3ccc([SH+](N)[O-])c(F)c3)c2)s1 (stereo unspecified), the IC50 was “in the range around 29 µM”.
In the case of N[S+](=O)([O-])c1ccc(Cc2c(-c3ccc(F)c(-c4nc5ccccc5[nH]4)c3)nn(-c3nc(C(=O)O)cs3)c2CC2CC2)cc1F, the IC50 is reported as < 0.1 µM.
In the case of CC(C)Cc1ccc(-c2cccc(-c3nn(-c4nc(C(=O)O)cs4)c(CCC4CC4)c3Cc3ccc([S+](N)(=O)[O-])c(F)c3)c2)cc1, the IC50 is reported as “in the range around 0.55 µM”.
In the case of CN(C)c1ccc(-c2cccc(-c3nn(-c4nc(C(=O)O)cs4)c(CC4CC4)c3Cc3ccc([SH+](N)[O-])c(F)c3)c2)cc1 (stereo unspecified), the IC50 is reported as < 0.1 µM.
In the case of Cc1ccc(C#Cc2cccc(-c3nn(-c4nc(CO)cs4)c(CC4CC4)c3Cc3ccc([SH+](N)[O-])c(F)c3)c2)s1 (stereo unspecified), the IC50 is reported as > 57 µM.
In the case of CC(C)(C)c1ccc(-c2cccc(-c3nn(-c4nc(C(=O)O)cs4)c(CC4CC4)c3Cc3ccc([SH+](N)[O-])c(F)c3)c2)cc1 (stereo unspecified), the IC50 is reported as “in the range around 0.55 µM”.
For N[SH+]([O-])c1ccc(Cc2c(-c3cccc(-c4cccc(Cl)c4)c3)nn(-c3nc(C(=O)O)cs3)c2CC2CC2)cc1F (stereo unspecified), the IC50 was < 0.1 µM.
For N#Cc1ccc(-c2cccc(-c3nn(-c4nc(C(=O)O)cs4)c(CC4CC4)c3Cc3ccc([SH+](N)[O-])c(F)c3)c2)cc1 (stereo unspecified), the IC50 was < 0.1 µM.
In the case of CC(C)c1cccc(-c2cccc(-c3nn(-c4nc(C(=O)O)cs4)c(CC4CC4)c3Cc3ccc([SH+](N)[O-])c(F)c3)c2)c1 (stereo unspecified), the IC50 is reported as < 0.1 µM.
